Source: patent publication US11608335B2, “Somatostatin modulators and uses thereof” (CRINETICS PHARMACEUTICALS, INC., priority 2018, dated 2023)
Where two headings read alike, the source gives them in different places.

Biological target: human somatostatin receptor subtype 5 (Homo sapiens, UniProt P35346)
Assay: cAMP assay for SST5R (inhibition of cAMP via human SST5 receptor)
Description: cAMP Assay Protocol for SST5R:
The cells are cultured at 37° C., 5% CO2 and 95% humidity. […] The cells are incubated for 20 minutes at 37° C. […] The cells are treated with 50 μL of lysis buffer (HRTF cAMP kit, Cisbio) for 30 minutes and then the lysate is diluted to 250 μL with assay buffer. The lysate is transferred to 384-well plates and cAMP detection and visualization antibodies are added and incubated for 1-24 hours at room temperature. The time-resolved fluorescent signal is read with a Tecan M1000Pro multiplate reader. The intracellular cAMP concentrations are calculated by regression to a standard curve and are plotted vs. the concentration of the compounds of the invention and the EC50 of the compounds are calculated using standard methods. All data manipulations are in GraphPad Prism v6 or v7.

human somatostatin receptor subtype 5, sequence (P35346 whole entry): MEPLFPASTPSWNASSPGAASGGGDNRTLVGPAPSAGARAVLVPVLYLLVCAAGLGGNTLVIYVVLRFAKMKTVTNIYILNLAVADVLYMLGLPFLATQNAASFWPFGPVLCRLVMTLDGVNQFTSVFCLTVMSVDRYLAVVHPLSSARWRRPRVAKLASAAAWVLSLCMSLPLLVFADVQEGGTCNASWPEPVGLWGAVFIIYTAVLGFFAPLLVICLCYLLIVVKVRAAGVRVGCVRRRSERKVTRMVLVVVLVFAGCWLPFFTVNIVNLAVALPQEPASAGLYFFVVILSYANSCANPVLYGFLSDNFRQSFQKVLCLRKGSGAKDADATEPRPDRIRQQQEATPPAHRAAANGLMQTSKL

EC50 [nM]	SMILES	other results
< 10	N#Cc1c(Cl)cccc1-c1cncc(-c2nc3cccc(F)c3[nH]2)c1N1CC[C@H](N)C1 [Compound 2-47, 2-{4-[(3S)-3-aminopyrrolidin-1-yl]-5-(4-fluoro-1H-1,3-benzodiazol-2-yl)pyridin-3-yl}-6-chlorobenzonitrile]	
10 to 100	CS(=O)(=O)c1cc(F)cc(-c2cncc(-c3nc4cccc(F)c4[nH]3)c2N2CC[C@H](N)C2)c1 [Compound 2-92, (3S)-1-[3-(4-fluoro-1H-1,3-benzodiazol-2-yl)-5-(3-fluoro-5-methanesulfonylphenyl)pyridin-4-yl]pyrrolidin-3-amine]	
10 to 100	CC1(N)CCN(c2c(-c3cccc(-n4cccn4)c3)cncc2-c2nc3cccc(F)c3[nH]2)C1 (stereo not shown) [Compound 2-16, 1-[3-(4-fluoro-1H-1,3-benzodiazol-2-yl)-5-[3-(1H-pyrazol-1-yl)phenyl]pyridin-4-yl]-3-methylpyrrolidin-3-amine]	
10 to 100	N#Cc1c(F)cccc1-c1cncc(-c2nc3c(F)ccc(F)c3[nH]2)c1N1CC[C@H](N)C1 [Compound 2-40, 2-{4-[(3S)-3-aminopyrrolidin-1-yl]-5-(4,7-difluoro-1H-1,3-benzodiazol-2-yl)pyridin-3-yl}-6-fluorobenzonitrile]	
> 1000	CNC(=O)c1cccc2nc(-c3cncc(-c4cccc(C#N)c4)c3N3CC[C@H](N)C3)[nH]c12 [Compound 2-90, 2-{4-[(3S)-3-aminopyrrolidin-1-yl]-5-(3-cyanophenyl)pyridin-3-yl}-N-methyl-1H-1,3-benzodiazole-4-carboxamide]	
< 10	C[C@]1(N)CCN(c2c(-c3ccc(F)c(C#N)c3)cncc2-c2nc3ncc(F)cc3[nH]2)C1 [Compound 2-168, 5-{4-[(3S)-3-amino-3-methylpyrrolidin-1-yl]-5-{6-fluoro-1H-imidazo[4,5-b]pyridin-2-yl}pyridin-3-yl}-2-fluorobenzonitrile]	
< 10	Cc1ccnc2nc(-c3cncc(-c4ccc(F)c(C#N)c4)c3N3CCC(C)(N)C3)[nH]c12 (stereo not shown) [Compound 2-119, 5-[4-(3-amino-3-methylpyrrolidin-1-yl)-5-{7-methyl-1H-imidazo[4,5-b]pyridin-2-yl}pyridin-3-yl]-2-fluorobenzonitrile]	Fold selectivity for SST5 vs SST2 (SST5 over SST2, class symbols): ++ (++=100 to 499); EC50 (read-out: SST5 potency, inhibition of cAMP via human SST5 receptor, Table B): < 10 nM
100 to 1000	CN(C)c1ccc(-c2cncc(-c3nc4cccc(F)c4[nH]3)c2N2CCC(C)(N)C2)cn1 (stereo not shown) [Compound 2-14, 4′-(3-amino-3-methylpyrrolidin-1-yl)-5′-(4-fluoro-1H-1,3-benzodiazol-2-yl)-N,N-dimethyl-[3,3′-bipyridin]-6-amine]	
10 to 100	Cc1cc(F)cc(-c2cncc(-c3nc4cc(F)c(Cl)cc4[nH]3)c2N2CC(CN)C2)c1 [Compound 1-14, 1-{1-[3-(5-chloro-6-fluoro-1H-1,3-benzodiazol-2-yl)-5-(3-fluoro-5-methylphenyl)pyridin-4-yl]azetidin-3-yl}methanamine]	
< 10	NC(=O)c1cccc(-c2cncc(-c3nc4cccc(F)c4[nH]3)c2N2CC[C@H](N)C2)c1 [Compound 2-85, 3-{4-[(3S)-3-aminopyrrolidin-1-yl]-5-(4-fluoro-1H-1,3-benzodiazol-2-yl)pyridin-3-yl}benzamide]	
< 10	CC(N)C1CN(c2c(-c3cc(F)cc(C(F)(F)F)c3)cncc2-c2nc3c(F)cc(F)cc3[nH]2)C1 (stereo not shown) [Compound 1-63, 1-{1-[3-(4,6-difluoro-1H-1,3-benzodiazol-2-yl)-5-[3-fluoro-5-(trifluoromethyl)phenyl]pyridin-4-yl]azetidin-3-yl}ethan-1-amine]	
< 10	Cc1cccc2nc(-c3cncc(-c4ccc(Cl)c(C#N)c4)c3N3CC[C@H](N)C3)[nH]c12 [Compound 2-98, 5-{4-[(3S)-3-aminopyrrolidin-1-yl]-5-(4-methyl-1H-1,3-benzodiazol-2-yl)pyridin-3-yl}-2-chlorobenzonitrile]	
100 to 1000	Cc1cc(-c2cncc(-c3nc4cc(F)cc(F)c4[nH]3)c2N2CC(CN)C2)cc(C(F)(F)F)c1 [Compound 1-33, 1-{1-[3-(4,6-difluoro-1H-1,3-benzodiazol-2-yl)-5-[3-methyl-5-(trifluoromethyl)phenyl]pyridin-4-yl]azetidin-3-yl}methanamine]	
10 to 100	CO/N=C/c1cccc(-c2cncc(-c3nc4cccc(F)c4[nH]3)c2N2CC[C@H](N)C2)c1 [Compound 2-12, (3S)-1-[3-(4-fluoro-1H-1,3-benzodiazol-2-yl)-5-{3-[(methoxyimino)methyl]phenyl}pyridin-4-yl]pyrrolidin-3-amine]	
10 to 100	Cc1cc(F)cc(-c2cncc(-c3nc4c(F)cccc4n3C)c2N2CC(CN)C2)c1 [Compound 1-24, 1-{1-[3-(4-fluoro-1-methyl-1H-1,3-benzodiazol-2-yl)-5-(3-fluoro-5-methylphenyl)pyridin-4-yl]azetidin-3-yl}methanamine]	
< 10	Cc1cc(F)cc(-c2cncc(-c3nc4cc(F)cc(F)c4[nH]3)c2N2CC(C(N)CO)C2)c1 (stereo not shown) [Compound 1-49, 2-Amino-2-{1-[3-(4,6-difluoro-1H-1,3-benzodiazol-2-yl)-5-(3-fluoro-5-methylphenyl)pyridin-4-yl]azetidin-3-yl}ethan-1-ol]	

EC50 [nM]	SMILES	other results
	COc1cc(Cl)cc2[nH]c(-c3cncc(-c4cc(C)cc(F)c4)c3N3CCC(N)CC3)nc12	Fold selectivity for SST5 vs SST2 (SST5 over SST2, given as number (comparison compounds)): 0.00004
< 10	Cn1c(-c2cncc(-c3ccnc(C#N)c3)c2N2CC[C@](C)(N)C2)nc2c(Cl)cccc21 [Compound 2-151, 4-[(3S)-3-amino-3-methylpyrrolidin-1-yl]-5-(4-chloro-1-methyl-1H-1,3-benzodiazol-2-yl)-[3,4′-bipyridine]-2′-carbonitrile]	
< 10	NCC1CN(c2c(-c3cccc(Cl)c3)cncc2-c2nc3c(F)cc(F)cc3[nH]2)C1 [Compound 1-53, 1-{1-[3-(3-chlorophenyl)-5-(4,6-difluoro-1H-1,3-benzodiazol-2-yl)pyridin-4-yl]azetidin-3-yl}methanamine]	
< 10	Cc1ccc(F)c2nc(-c3cncc(-c4cc(F)cc(C(N)=O)c4)c3N3CC[C@H](N)C3)[nH]c12 [Compound 2-96, 3-{4-[(3S)-3-aminopyrrolidin-1-yl]-5-(7-fluoro-4-methyl-1H-1,3-benzodiazol-2-yl)pyridin-3-yl}-5-fluorobenzamide]	
< 10	Cc1cccc2nc(-c3cncc(-c4cc(F)cc(C(N)=O)c4)c3N3CCC(C)(N)C3)[nH]c12 (stereo not shown) [Compound 2-118, 3-[4-(3-amino-3-methylpyrrolidin-1-yl)-5-(4-methyl-1H-1,3-benzodiazol-2-yl)pyridin-3-yl]-5-fluorobenzamide]	
10 to 100	N#Cc1ccc2nc(-c3cncc(-c4cc(F)cc(Cl)c4)c3N3CC[C@H](N)C3)[nH]c2c1 [Compound 2-103, 2-{4-[(3S)-3-aminopyrrolidin-1-yl]-5-(3-chloro-5-fluorophenyl)pyridin-3-yl}-1H-1,3-benzodiazole-5-carbonitrile]	
100 to 1000	Cc1cc(F)cc(-c2cncc(-c3nc4cc(F)cc(F)c4[nH]3)c2N2CC(O)(CN)C2)c1 [Compound 1-26, 3-(aminomethyl)-1-[3-(4,6-difluoro-1H-1,3-benzodiazol-2-yl)-5-(3-fluoro-5-methylphenyl)pyridin-4-yl]azetidin-3-ol]	
10 to 100	Cc1cc(F)cc(-c2cncc(-c3nc4cc(F)c(F)cc4[nH]3)c2N2CC(CN)C2)c1 [Compound 1-13, 1-{1-[3-(5,6-difluoro-1H-1,3-benzodiazol-2-yl)-5-(3-fluoro-5-methylphenyl)pyridin-4-yl]azetidin-3-yl}methanamine]	
< 10	Cn1c(-c2cncc(-c3ccnc(C#N)c3)c2N2CC[C@](C)(N)C2)nc2c(F)cccc21 [Compound 2-150, 4-[(3S)-3-amino-3-methylpyrrolidin-1-yl]-5-(4-fluoro-1-methyl-1H-1,3-benzodiazol-2-yl)-[3,4′-bipyridine]-2′-carbonitrile]	
10 to 100	Cc1ccnc2nc(-c3cncc(-c4ccc(F)c(C#N)c4)c3N3CC[C@H](N)C3)[nH]c12 [Compound 2-50, 5-{4-[(3S)-3-aminopyrrolidin-1-yl]-5-{7-methyl-1H-imidazo[4,5-b]pyridin-2-yl}pyridin-3-yl}-2-fluorobenzonitrile]	
100 to 1000	N#Cc1cccc(-c2cncc(-c3nc4c(C(N)=O)cccc4[nH]3)c2N2CC[C@H](N)C2)c1 [Compound 2-83, 2-{4-[(3S)-3-aminopyrrolidin-1-yl]-5-(3-cyanophenyl)pyridin-3-yl}-1H-1,3-benzodiazole-4-carboxamide]	
< 10	COc1cc(Cl)cc(-c2cncc(-c3nc4c(F)cc(F)cc4[nH]3)c2N2CC(CN)C2)c1 [Compound 1-59, 1-{1-[3-(3-chloro-5-methoxyphenyl)-5-(4,6-difluoro-1H-1,3-benzodiazol-2-yl)pyridin-4-yl]azetidin-3-yl}methanamine]	
< 10	CC1(N)CCN(c2c(-c3ccnc(C#N)c3)cncc2-c2nc3cccc(C#N)c3[nH]2)C1 (stereo not shown) [Compound 2-160, 4-(3-amino-3-methylpyrrolidin-1-yl)-5-(4-cyano-1H-1,3-benzodiazol-2-yl)-[3,4′-bipyridine]-2′-carbonitrile]	
< 10	C[C@]1(N)CCN(c2c(-c3ccc(F)c(C#N)c3)cncc2-c2nc3c(C#N)ccnc3[nH]2)C1 [Compound 2-176, 2-{4-[(3S)-3-amino-3-methylpyrrolidin-1-yl]-5-(3-cyano-4-fluorophenyl)pyridin-3-yl}-1H-imidazo[4,5-b]pyridine-7-carbonitrile]	
100 to 1000	Cc1cncc(-c2cncc(-c3nc4cc(F)cc(F)c4[nH]3)c2N2CC(CN)C2)c1 [Compound 1-32, 1-{1-[5-(4,6-difluoro-1H-1,3-benzodiazol-2-yl)-5′-methyl-[3,3′-bipyridin]-4-yl]azetidin-3-yl}methanamine]	
< 10	Cc1cc(F)cc(-c2cncc(-c3nc4c(F)cc(F)cc4[nH]3)c2N2CC(C)(CN)C2)c1 [Compound 1-50, 1-{1-[3-(4,6-difluoro-1H-1,3-benzodiazol-2-yl)-5-(3-fluoro-5-methylphenyl)pyridin-4-yl]-3-methylazetidin-3-yl}methanamine]	
